# PubChem BioAssay (NCI)
#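 A five-concentration, 48-hour dose response in 96-well plates underlies each endpoint, interpolated linearly between surrounding concentrations. GI50 = concentration required for 50% inhibition of growth. TGI: concentration producing complete growth inhibition.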
# Experiments:
# Assay in all cases: DTP human tumour cell line panel, 48 h
# UACC-62 melanoma = test system: UACC-62 melanoma
# DU-145 prostate = test system: DU-145 prostate
# SF-539 CNS = test system: SF-539 CNS
# HCC-2998 colon = test system: HCC-2998 colon
# ACHN renal = test system: ACHN renal
# HT29 colon = test system: HT29 colon
# HCT-116 colon = test system: HCT-116 colon
# A549 NSCLC = test system: A549 NSCLC
# U251 CNS = test system: U251 CNS
# MDA-MB-231 breast = test system: MDA-MB-231 breast
# MCF7 breast = test system: MCF7 breast
# NCI-H522 lung = test system: NCI-H522 lung
# NCI-H23 lung = test system: NCI-H23 lung
# RPMI-8226 leukemia = test system: RPMI-8226 leukemia
# SNB-19 CNS = test system: SNB-19 CNS
# MDA-MB-435 = test system: MDA-MB-435
# HCT-15 colon = test system: HCT-15 colon
# SK-OV-3 ovarian = test system: SK-OV-3 ovarian
# T-47D breast = test system: T-47D breast
# BT-549 breast = test system: BT-549 breast
# KM12 colon = test system: KM12 colon
# HOP-62 NSCLC = test system: HOP-62 NSCLC
# COLO 205 colon = test system: COLO 205 colon
# IGROV1 ovarian = test system: IGROV1 ovarian
# SNB-75 CNS = test system: SNB-75 CNS
# K-562 leukemia = test system: K-562 leukemia
# HOP-92 NSCLC = test system: HOP-92 NSCLC
# A498 renal = test system: A498 renal
# TK-10 renal = test system: TK-10 renal
# OVCAR-5 ovarian = test system: OVCAR-5 ovarian
# M14 melanoma = test system: M14 melanoma
# SK-MEL-28 melanoma = test system: SK-MEL-28 melanoma
# NCI-H460 lung = test system: NCI-H460 lung
# SK-MEL-2 melanoma = test system: SK-MEL-2 melanoma
# MALME-3M melanoma = test system: MALME-3M melanoma
# HS 578T breast = test system: HS 578T breast
# SR leukemia = test system: SR leukemia
# RXF 393 renal = test system: RXF 393 renal
# OVCAR-4 ovarian = test system: OVCAR-4 ovarian
# EKVX NSCLC = test system: EKVX NSCLC
# SW-620 colon = test system: SW-620 colon
# OVCAR-3 ovarian = test system: OVCAR-3 ovarian
# HL-60(TB) leukemia = test system: HL-60(TB) leukemia
# PC-3 prostate = test system: PC-3 prostate
# CAKI-1 renal = test system: CAKI-1 renal
# NCI-H226 lung = test system: NCI-H226 lung
# SK-MEL-5 melanoma = test system: SK-MEL-5 melanoma
# SF-295 CNS = test system: SF-295 CNS
# UO-31 renal = test system: UO-31 renal
# OVCAR-8 ovarian = test system: OVCAR-8 ovarian
# SN12C renal = test system: SN12C renal
# CCRF-CEM leukemia = test system: CCRF-CEM leukemia
# SF-268 CNS = test system: SF-268 CNS
# UACC-257 melanoma = test system: UACC-257 melanoma
# 786-0 renal = test system: 786-0 renal
# MOLT-4 leukemia = test system: MOLT-4 leukemia
# NCI/ADR-RES ovarian = test system: NCI/ADR-RES ovarian
# LOX IMVI melanoma = test system: LOX IMVI melanoma
compound,measurement,setting,value
Cc1ccc(-c2nc(NCCOCCOCCN)nc(N3CCN(c4ccccn4)CC3)n2)cc1,GI50,UACC-62 melanoma,5.99 µM
same,TGI,UACC-62 melanoma,13.7 µM
same,GI50,DU-145 prostate,16.6 µM
same,TGI,DU-145 prostate,31.1 µM
same,GI50,SF-539 CNS,16.8 µM
same,TGI,SF-539 CNS,35.1 µM
same,GI50,HCC-2998 colon,8.01 µM
same,TGI,HCC-2998 colon,21.9 µM
same,GI50,ACHN renal,14.7 µM
same,TGI,ACHN renal,32.4 µM
same,GI50,HT29 colon,8.99 µM
same,TGI,HT29 colon,29.1 µM
same,GI50,HCT-116 colon,10 µM
same,TGI,HCT-116 colon,27.8 µM
same,GI50,A549 NSCLC,17.1 µM
same,TGI,A549 NSCLC,36.3 µM
same,GI50,U251 CNS,14.2 µM
same,TGI,U251 CNS,33 µM
same,GI50,MDA-MB-231 breast,14.1 µM
same,TGI,MDA-MB-231 breast,29.8 µM
same,GI50,MCF7 breast,12.7 µM
same,TGI,MCF7 breast,26.9 µM
same,GI50,NCI-H522 lung,18.4 µM
same,TGI,NCI-H522 lung,37 µM
same,GI50,NCI-H23 lung,16.4 µM
same,TGI,NCI-H23 lung,32 µM
same,GI50,RPMI-8226 leukemia,10.6 µM
same,TGI,RPMI-8226 leukemia,32.8 µM
same,GI50,SNB-19 CNS,16.9 µM
same,TGI,SNB-19 CNS,34.9 µM
same,GI50,MDA-MB-435,10.5 µM
same,TGI,MDA-MB-435,30.2 µM
same,GI50,HCT-15 colon,10.1 µM
same,TGI,HCT-15 colon,29.8 µM
same,GI50,SK-OV-3 ovarian,19.1 µM
same,TGI,SK-OV-3 ovarian,35.6 µM
same,GI50,T-47D breast,13.7 µM
same,TGI,T-47D breast,29.1 µM
same,GI50,BT-549 breast,14.1 µM
same,TGI,BT-549 breast,29.2 µM
same,GI50,KM12 colon,16.6 µM
same,TGI,KM12 colon,32.9 µM
same,GI50,HOP-62 NSCLC,16.7 µM
same,TGI,HOP-62 NSCLC,31.4 µM
same,GI50,COLO 205 colon,6.89 µM
same,TGI,COLO 205 colon,14.2 µM
same,GI50,IGROV1 ovarian,19.4 µM
same,TGI,IGROV1 ovarian,38 µM
same,GI50,SNB-75 CNS,13.9 µM
same,TGI,SNB-75 CNS,27.4 µM
same,GI50,K-562 leukemia,9.18 µM
same,TGI,K-562 leukemia,24.6 µM
same,GI50,HOP-92 NSCLC,4.15 µM
same,TGI,HOP-92 NSCLC,19 µM
same,GI50,A498 renal,5.94 µM
same,TGI,A498 renal,21.7 µM
same,GI50,TK-10 renal,18.5 µM
same,TGI,TK-10 renal,34.9 µM
same,GI50,OVCAR-5 ovarian,16.9 µM
same,TGI,OVCAR-5 ovarian,32.9 µM
same,GI50,M14 melanoma,5.52 µM
same,TGI,M14 melanoma,11.9 µM
same,GI50,SK-MEL-28 melanoma,6.04 µM
same,TGI,SK-MEL-28 melanoma,12.4 µM
same,GI50,NCI-H460 lung,13.9 µM
same,TGI,NCI-H460 lung,29.9 µM
same,GI50,SK-MEL-2 melanoma,18 µM
same,TGI,SK-MEL-2 melanoma,35.9 µM
same,GI50,MALME-3M melanoma,15.2 µM
same,TGI,MALME-3M melanoma,33.7 µM
same,GI50,HS 578T breast,15.9 µM
same,TGI,HS 578T breast,42.3 µM
same,GI50,SR leukemia,5.5 µM
same,TGI,SR leukemia,20.7 µM
same,GI50,RXF 393 renal,13 µM
same,TGI,RXF 393 renal,28.2 µM
same,GI50,OVCAR-4 ovarian,14.7 µM
same,TGI,OVCAR-4 ovarian,29.3 µM
same,GI50,EKVX NSCLC,15.8 µM
same,TGI,EKVX NSCLC,33 µM
same,GI50,SW-620 colon,11 µM
same,TGI,SW-620 colon,29.2 µM
same,GI50,OVCAR-3 ovarian,16.9 µM
same,TGI,OVCAR-3 ovarian,31.2 µM
same,GI50,HL-60(TB) leukemia,18.7 µM
same,TGI,HL-60(TB) leukemia,40.5 µM
same,GI50,PC-3 prostate,15.5 µM
same,TGI,PC-3 prostate,31 µM
same,GI50,CAKI-1 renal,16.5 µM
same,TGI,CAKI-1 renal,33.7 µM
same,GI50,NCI-H226 lung,17.4 µM
same,TGI,NCI-H226 lung,34.3 µM
same,GI50,SK-MEL-5 melanoma,11.8 µM
same,TGI,SK-MEL-5 melanoma,25.1 µM
same,GI50,SF-295 CNS,18.4 µM
same,TGI,SF-295 CNS,38.6 µM
same,GI50,UO-31 renal,13.3 µM
same,TGI,UO-31 renal,29.9 µM
same,GI50,OVCAR-8 ovarian,17.8 µM
same,TGI,OVCAR-8 ovarian,37.5 µM
same,GI50,SN12C renal,14 µM
same,TGI,SN12C renal,29.5 µM
same,GI50,CCRF-CEM leukemia,14.1 µM
same,TGI,CCRF-CEM leukemia,37.1 µM
same,GI50,SF-268 CNS,14.3 µM
same,TGI,SF-268 CNS,29.9 µM
same,GI50,UACC-257 melanoma,6.85 µM
same,TGI,UACC-257 melanoma,15.5 µM
same,GI50,786-0 renal,12.4 µM
same,TGI,786-0 renal,26.8 µM
same,GI50,MOLT-4 leukemia,15.8 µM
same,TGI,MOLT-4 leukemia,36 µM
same,GI50,NCI/ADR-RES ovarian,15.3 µM
same,TGI,NCI/ADR-RES ovarian,31.1 µM
same,GI50,LOX IMVI melanoma,8.82 µM
same,TGI,LOX IMVI melanoma,25.9 µM
